Reference: US11542254B2, “Methods and composition of 4-substituted benzoylpiperazine-1-substituted carbonyls as beta-catenin/B-cell lymphoma 9 inhibitors” (University of Utah Research Foundation, priority 2016, dated 2023)
“Also recorded” adds a separate entry of the source. Where a name gives a salt, the structure may show the parent alone. Read-outs that look alike come from different tables or passages of the source.

Tests used:
β-catenin E155A/BCL9 PPI = β-catenin E155A/BCL9 PPI (Homo sapiens (Human), UniProt P35222, E155A); assay: AlphaScreen competitive inhibition assay, β-catenin E155A mutant/BCL9 PPI; assay type: binding
Chain of β-catenin E155A/BCL9 PPI (P35222 138-686 E155A): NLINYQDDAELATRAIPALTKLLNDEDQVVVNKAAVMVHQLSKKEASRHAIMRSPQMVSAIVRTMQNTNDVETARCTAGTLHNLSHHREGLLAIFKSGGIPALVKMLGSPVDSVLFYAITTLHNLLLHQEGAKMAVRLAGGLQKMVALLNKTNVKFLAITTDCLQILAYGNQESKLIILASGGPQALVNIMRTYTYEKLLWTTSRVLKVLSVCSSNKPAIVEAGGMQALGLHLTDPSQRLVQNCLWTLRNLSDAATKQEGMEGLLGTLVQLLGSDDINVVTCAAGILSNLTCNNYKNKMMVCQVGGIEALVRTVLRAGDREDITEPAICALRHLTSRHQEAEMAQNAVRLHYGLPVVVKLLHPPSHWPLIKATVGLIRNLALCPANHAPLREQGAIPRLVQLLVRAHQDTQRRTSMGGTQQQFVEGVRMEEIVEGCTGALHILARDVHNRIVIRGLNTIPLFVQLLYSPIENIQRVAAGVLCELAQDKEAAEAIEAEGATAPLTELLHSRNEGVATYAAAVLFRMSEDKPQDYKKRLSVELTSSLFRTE
Description: (§1) β-Catenin mutants D145A, E155A, D145A/E155A have been made previously.^5 Wild-type β-catenin and its mutants (residues 138-686) were cloned into a pET-28b vector carrying a C-terminal 6×histidine (Novagen), and transformed into Escherichia coli BL21 DE3 (Novagen). Cells were cultured in LB medium with 30 μg/mL kanamycin until the OD600 was approximately 0.8, and then protein expression was induced with 400 μM of IPTG at 20° C. overnight. Cells were lysed by sonication. […] The purity of β-catenin was greater than 95% as determined by SDS-PAGE gel analysis. Native non-denaturing gel electrophoresis was performed to confirm the homogeneity of the purified proteins. Thermal-shift assay was performed on an iCycler iQ Real Time Detection System (Bio-Rad) to monitor protein stability and detect protein aggregation. Protein unfolding was evaluated through measuring the fluorescence changes of fluorescent dye Sypro Orange when interacting with wild-type or mutant β-catenin proteins. A temperature increment of 1°/min was applied. CD spectra were measured on a J-815 spectropolarimeter (Jasco). All spectra were recorded at room temperature, and the baseline control containing all of the substances except protein. […]

[1] = test system: pcDNA3.1-β-catenin transfected HEK293 cells, FOPFlash (mutant Tcf binding sites); assay: FOPFlash luciferase reporter assay; assay type: cell-based; details: up to 100 μM
Description: (§2) 27. Cell Transfection and Luciferase Assay
(§3) FuGENE 6 (E2962, Promega) in a 96-well plate format was used for the transfection of HEK293 and SW480 cells according to the manufacturer's instructions. HEK293 cells were co-transfected with 45 ng of the TOPFlash (with three wild-type Tcf binding sites) or FOPFlash (with three mutant Tcf binding sites) reporter gene, 135 ng pcDNA3.1-β-catenin and 20 ng pCMV-RL normalization reporter gene. SW480 cells were co-transfected with 60 ng of the TOPFlash or FOPFlash reporter gene and 40 ng pCMV-RL normalization reporter. Cells were cultured at 37° C. for 24 h, and different concentrations of inhibitors were then added. After 24 h, the luciferase reporter activity was measured using the Dual-Glo system (E2940, Promega). Normalized luciferase activity in response to the treatment with the inhibitors was compared with that obtained from the cells treated with DMSO. Experiments were performed in triplicate.

[2] = biological target: β-catenin D145A/E155A double mutant/BCL9 interaction (Homo sapiens (Human), UniProt P35222, D145A/E155A); assay: AlphaScreen competitive inhibition assay, β-catenin D145A/E155A double mutant/BCL9 interaction; assay type: binding; details: read-out: Ki ± SD
Chain of β-catenin D145A/E155A double mutant/BCL9 interaction (P35222 138-686 D145A/E155A): as the sequence (P35222 138-686 E155A) above, with D8A counted along it
Description: as §1

[3] = test system: pcDNA3.1-β-catenin transfected HEK293 cells, TOPFlash (wild-type Tcf binding sites); assay: TOPFlash Wnt-responsive luciferase reporter assay; assay type: cell-based; details: 24 h treatment, hydrochloride
Description: as §2, §3

β-catenin/cadherin PPI = β-catenin/cadherin PPI (Homo sapiens (Human), UniProt P35222); assay: AlphaScreen selectivity assay, β-catenin/BCL9 over β-catenin/cadherin PPIs; assay type: binding; details: in-parallel AlphaScreen selectivity assay
Chain of β-catenin/cadherin PPI (P35222 138-686): as the sequence (P35222 138-686 E155A) above, with A18E counted along it
Excerpt: Human BCL9 (residues 350-375), N-terminally biotinylated human BCL9 (residues 350-375), N-terminally fluorescein-labeled human BCL9 (residues 350-375), and N-terminally biotinylated human E-cadherin (residues 824-877) were synthesized by InnoPep Inc. (www.innopep.com) and HPLC purified by HPLC with purity>95%. The structures were validated by LC/MS. The sequences of these peptides have been described previously.^6
The experimental details of the AlphaScreen competitive inhibition assays for the β-catenin/BCL9 and β-catenin/E-cadherin PPIs have been described previously.^5 The concentrations of mutant β-catenin proteins used in the AlphaScreen competitive inhibition assays were the same as that of wild-type β-catenin protein.
The AlphaScreen selectivity assay was used to quantify inhibitor selectivity.

SW480 cells = assay: MTS cell viability assay, SW480; assay type: cell-based; details: read-out: IC50 ± SD
Description: (§4) 26. MTS Cell Viability Assay
(§5) Colorectal cancer cell lines, SW480 and HCT116 were seeded in 96-well plates at 4×10^3 cells/well, maintained overnight at 37° C., and incubated with the tested compounds at various concentrations. Cell viability was monitored after 72 h using a freshly prepared mixture of 1 part phenazine methosulfate (PMS, Sigma) solution (0.92 mg/mL) and 19 parts 3-(4,5-dimethylthiazol-2-yl)-5-(3-carboxymethoxyphenyl)-2-(4-sulfophenyl)-2H-tetrazolium (MTs, Promega) solution (2 mg/mL). Cells were incubated in 10 μL of this solution at 37° C. for 3 h, and A490 was measured. […] Experiments were performed in triplicate.

β-catenin D145A/BCL9 PPI = β-catenin D145A/BCL9 PPI (Homo sapiens (Human), UniProt P35222, D145A); assay: AlphaScreen competitive inhibition assay, β-catenin D145A mutant/BCL9 PPI; assay type: binding
Chain of β-catenin D145A/BCL9 PPI (P35222 138-686 D145A): as the sequence (P35222 138-686 E155A) above, with D8A, A18E counted along it
Description: as §1

β-catenin/BCL9 PPI = β-catenin/BCL9 PPI (Homo sapiens (Human), UniProt P35222); assay: AlphaScreen competitive inhibition assay, wild-type β-catenin/BCL9 PPI; assay type: binding; details: wild-type β-catenin/BCL9 PPI, AlphaScreen competitive inhibition, mean ± SD (n=3)
Chain of β-catenin/BCL9 PPI (P35222 138-686): as the sequence (P35222 138-686 E155A) above, with A18E counted along it
Description: Cells were cultured in LB medium with 30 μg/mL kanamycin until the OD600 was approximately 0.8, and then protein expression was induced with 400 μM of IPTG at 20° C. overnight. Cells were lysed by sonication. […] Native non-denaturing gel electrophoresis was performed to confirm the homogeneity of the purified proteins. Thermal-shift assay was performed on an iCycler iQ Real Time Detection System (Bio-Rad) to monitor protein stability and detect protein aggregation. Protein unfolding was evaluated through measuring the fluorescence changes of fluorescent dye Sypro Orange when interacting with wild-type or mutant β-catenin proteins. A temperature increment of 1°/min was applied. […] All spectra were recorded at room temperature, and the baseline control containing all of the substances except protein. Sample were prepared at a concentration around 1-5 μM in a buffer of 10 mM potassium phosphate and 100 mM potassium fluoride at pH 7.0 to ensure that the transmission of light through the sample was not restricted. […] Proteins were aliquoted and stored at −80° C.
25. Alphascreen Competitive Inhibition Assays Using Wild-Type and Mutant β-Catenin Proteins

HCT116 cells = assay: MTS cell viability assay, HCT116; assay type: cell-based; details: read-out: IC50 ± SD
Description: as §4, §5

Cl.Cl.O=C(c1cc(F)cc(N2CCNCC2)c1)N1CCN(C(=O)c2ccc(O[C@H]3CCNC3)c(C3CCCCC3)c2)CC1 [Compound 10, (S)-(4-(3-Cyclohexyl-4-(pyrrolidin-3-yloxy)benzoyl)piperazin-1-yl) (3-fluoro-5-(piperazin-1-yl)phenyl) methanone hydrochloride]
Ki fold higher than for wild-type β-catenin/BCL9 PPI (β-catenin E155A/BCL9 PPI; β-catenin E155A/BCL9 PPI vs wild type): 6-8 fold
Ki (β-catenin E155A/BCL9 PPI; β-catenin E155A/BCL9 PPI, AlphaScreen competitive inhibition, read-out: Ki ± SD): 39 ± 3.3 µM
FOPFlash luciferase activity [1]: did not affect
Ki [2]: 53 ± 4.2 µM
TOPFlash luciferase activity [3]: suppressed the TOPFlash (with wild-type Tcf binding sites) luciferase activity in a dose-dependent manner; also recorded: suppress the transactivation of canonical Wnt signaling
selectivity for β-catenin/BCL9 over β-catenin/cadherin PPIs (β-catenin/cadherin PPI): 98 fold
IC50 (SW480 cells; Homo sapiens, SW480, 72 h): 22 ± 4 µM
Ki fold higher than for wild-type β-catenin/BCL9 PPI (β-catenin D145A/BCL9 PPI; β-catenin D145A/BCL9 PPI vs wild type): 6-8 fold
Ki (β-catenin D145A/BCL9 PPI; β-catenin D145A/BCL9 PPI, AlphaScreen competitive inhibition, read-out: Ki ± SD): 29 ± 3 µM
Ki (β-catenin/BCL9 PPI): 5.2 µM
IC50 (HCT116 cells; Homo sapiens, HCT-116, 72 h): 26 ± 6.6 µM

O=C(c1cc(F)cc(N2CCNCC2)c1)N1CCN(C(=O)c2ccc(O[C@H]3CCNC3)c(-c3ccc(F)cc3)c2)CC1 [Compound 2, (S)-(4-(3-fluoro-5-(piperazin-1-yl)benzoyl)piperazin-1-yl) (4′-fluoro-6-(pyrrolidin-3-yloxy)-[1,1′-biphenyl]-3-yl) methanone hydrochloride]
IC50 (SW480 cells; Homo sapiens, SW480 colorectal cancer cells, MTS, 72 h): 86 ± 8.8 µM
Ki (β-catenin/BCL9 PPI): 19 µM
IC50 (HCT116 cells; Homo sapiens, HCT-116, HCT116 colorectal cancer cells, MTS, 72 h): 120 ± 16 µM

CC1CCC(c2cc(C(=O)N3CCN(C(=O)c4cc(F)cc(N5CCNCC5)c4)CC3)ccc2O[C@H]2CCNC2)CC1.Cl (stereo partly drawn) [Compound 12, (S)-(4-(3-fluoro-5-(piperazin-1-yl)benzoyl)piperazin-1-yl) (3-(4-methylcyclohexyl)-4-(pyrrolidin-3-yloxy)phenyl) methanone hydrochloride]
TOPFlash luciferase activity [3]: suppressed the TOPFlash (with wild-type Tcf binding sites) luciferase activity in a dose-dependent manner; also recorded: suppress the transactivation of canonical Wnt signaling
IC50 (SW480 cells; SW480 colorectal cancer cells, MTS, 72 h): 44 ± 6.5 µM
IC50 (HCT116 cells; HCT116 colorectal cancer cells, MTS, 72 h): 39 ± 5.4 µM
